# US12145947B2, “Pyrimidine based modulators and uses thereof” (Quanta Therapeutics, Inc., priority 2022, dated 2024)
# Like-named read-outs stand apart in the source and are kept apart here.
# Tests used:
# [1] = test system: AGS cells (KRAS G12D), phospho-ERK; test: pERK In Cell Western (ICW) assay (Method B), AGS cells; type: cell-based; settings: Homo sapiens
# Protocol: pERK ICW is a high throughput screening assay to evaluate the cellular potency of mutant KRAS small molecule inhibitors. KRAS mutant cell lines AGS and GP2D (KRAS^G12D) were purchased from ATCC and maintained respectively in RPMI and DMEM medium supplemented with 10% fetal bovine serum and Penicillin/Streptomycin.
# Cells grown in exponential phase were trypsinized, resuspended in fresh media, and viable cells were counted using a cell counter with Trypan Blue (BioRad TC20). Cells were seeded into 384-well plate (Greiner 781091) at density of 5,000 cells/well for AGS and 10,000 cells/well for GP2D and allowed to grow overnight in a 37° C. CO2 incubator. The next day, compounds were dispensed into wells with a ½ log, 10-point serial dilution and top concentration of […] using Tecan D300e dispenser and incubated for 3 hours in a 37° C. CO2 incubator. Cells were then fixed with paraformaldehyde (Electron Microscopy Sciences, 15710, 4% final concentration) for 30 min, permeabilized with wash buffer (1×PBS+0.1% Triton X-100) for 30 min and blocked with Odyssey blocking buffer (Li—COR 927-70001) for 1 hour, all at room temperature (RT). Phospho-ERK antibody (CST 4370L) was diluted 1:500 in Odyssey blocking+0.2% Tween 20 and incubated with cells overnight at 4° C. The next day, plates were washed 5× with wash buffer, incubated with IRDye 800 CW, Goat anti-Rabbit secondary antibody (Li—COR 926-32211, 1:500) and DRAQ5 (CST 4084L, 1:5,000) diluted in Odyssey blocking+0.2% Tween 20 for 1 hour, washed 5×, and imaged on an Odyssey CLx imaging system.
# For data analysis, signal intensities from 800 (phosphor-ERK) and 700 (DRAQ5) channels were extracted, and phospho-ERK signals were normalized to DRAQ5 signals for each well and percent of DMSO control values were computed. Data were then imported into Graphpad Prism to compute half-maximal inhibitory concentrations (IC50) using a 4-parameter variable slope model. Z-factor for each plate was computed from signals derived from wells treated with either DMSO or […] of Trametinib. AGS pERK ICW (Method B) IC50 (uM) values of selected compounds are depicted in Table 2 with compounds having a value 0.001 uM to 0.01 uM as ++++; >0.01 uM to 0.1 uM as +++; >0.1 uM to 1 uM as ++; 1 uM to 10 uM as + and >10 uM as NA.
# [2] = target: T1, GST-tagged KRAS-G12D (2-169) (Homo sapiens, UniProt P01116, G12D); test: Nucleotide exchange assay (NEA), SOS-mediated, HTRF, KRAS G12D; type: biochemical; settings: IC50 extracted at 30 min
# T1 construct: GST-tagged KRAS-G12D (2-169, Reaction Biology, MSC-11-539); purchased Reaction Biology MSC-11-539 (KRAS G12D); MSC-11-502 (SOS1cat)
# Method in brief: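 IC50 values come from 4-parameter fits at the 30 min time point of an SOS-driven exchange read by HTRF, normalised to DMSO (0%) and SOS-free blank (100%). Final reaction: 5 nM GST-KRAS-G12D (2-169), 20 nM SOScat, 150 nM fluorescent GTP-DY-647P1, after 1 h RT compound preincubation with KRAS and Tb-cryptate anti-GST.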
# [3] = Table 4, pERK, 3 hours, read-out: ICW-AGS
# T1 sequence (P01116 2-169 isoform P01116-2 G12D): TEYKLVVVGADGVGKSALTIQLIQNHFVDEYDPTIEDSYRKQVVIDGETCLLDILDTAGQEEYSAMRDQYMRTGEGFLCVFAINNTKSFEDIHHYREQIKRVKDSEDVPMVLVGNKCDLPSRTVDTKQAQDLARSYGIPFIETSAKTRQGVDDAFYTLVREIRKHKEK
SMILES,"IC50 ([1]; Table 2, 3 hours, ICW, read-out: pERK-AGS (uM) Method B) [µM]","IC50 [1, 3] [µM]",IC50 ([2]; Table 2) [nM],IC50 ([2]; Table 4) [nM]
"CN(C)C(=O)c1nn2c(c1Cl)CN(c1nc(OC[C@@]34CCCN3C[C@H](F)C4)nc(N3CC4(CCc5sc(N)c(C#N)c54)C3)c1C#N)CCC2 [Compound 2, 5-[6-(2-amino-3-cyano-spiro[5,6-dihydrocyclopenta[b]thiophene-4,3′-azetidine]-1′-yl)-5-cyano-2-[[(2R,8S)-2-fluoro-1,2,3,5,6,7-hexahydropyrrolizin-8-yl]methoxy]pyrimidin-4-yl]-3-chloro-N,N-dimethyl-4,6,7,8-tetrahydropyrazolo[1,5-a][1,4]diazepine-2-carboxamide]",0.01 to 0.1,0.01 to 0.1,< 10,< 10
"CN(C)C(=O)c1nn2c(c1Cl)CN(c1nc(OC[C@@]34CCCN3C[C@H](F)C4)nc(N3CC4(CCCc5sc(N)c(C#N)c54)C3)c1C#N)CCC2 [Compound 3, 5-[6-(2-amino-3-cyano-spiro[6,7-dihydro-5H-benzothiophene-4,3′-azetidine]-1′-yl)-5-cyano-2-[[(2R,8S)-2-fluoro-1,2,3,5,6,7-hexahydropyrrolizin-8-yl]methoxy]pyrimidin-4-yl]-3-chloro-N,N-dimethyl-4,6,7,8-tetrahydropyrazolo[1,5-a][1,4]diazepine-2-carboxamide]",,0.01 to 0.1,< 10,< 10
"N#Cc1c(N2C[C@H]3CC[C@@H](C2)N3)nc(OCC2(CN3CCOCC3)CC2)nc1N1CC2(CCc3sc(N)c(C#N)c32)C1 [Compound 4, 2-amino-1′-[5-cyano-2-[[1-(morpholinomethyl)cyclopropyl]methoxy]-6-[(1R,5S)-3,8-diazabicyclo[3.2.1]octan-3-yl]pyrimidin-4-yl]spiro[5,6-dihydrocyclopenta[b]thiophene-4,3′-azetidine]-3-carbonitrile]",,0.001 to 0.01,,< 10
"CN(C)C(=O)c1nn2c(c1Cl)CN(c1nc(OCC3(CN4CCOCC4)CC3)nc(N3CC4(CCc5sc(N)c(C#N)c54)C3)c1C#N)CCC2 [Compound 5, 5-[6-(2-amino-3-cyano-spiro[5,6-dihydrocyclopenta[b]thiophene-4,3′-azetidine]-1′-yl)-5-cyano-2-[[1-(morpholinomethyl)cyclopropyl]methoxy]pyrimidin-4-yl]-3-chloro-N,N-dimethyl-4,6,7,8-tetrahydropyrazolo[1,5-a][1,4]diazepine-2-carboxamide]",,0.01 to 0.1,,< 10
"N#Cc1c(N2CCCn3nc(-c4ccccn4)c(Cl)c3C2)nc(OCC2(CN3CCOCC3)CC2)nc1N1CC2(CCc3sc(N)c(C#N)c32)C1 [Compound 75, 2-amino-1′-[6-[3-chloro-2-(2-pyridyl)-4,6,7,8-tetrahydropyrazolo[1,5-a][1,4]diazepin-5-yl]-5-cyano-2-[[1-(morpholinomethyl)cyclopropyl]methoxy]pyrimidin-4-yl]spiro[5,6-dihydrocyclopenta[b]thiophene-4,3′-azetidine]-3-carbonitrile]",,,,< 10
"N#Cc1c(N2C[C@H]3CC[C@@H](C2)N3)nc(OCc2ccccc2)nc1N1CC2(CCc3sc(N)c(C#N)c32)C1 [Compound 76, 2-amino-1′-[2-benzyloxy-5-cyano-6-[(1R,5S)-3,8-diazabicyclo[3.2.1]octan-3-yl]pyrimidin-4-yl]spiro[5,6-dihydrocyclopenta[b]thiophene-4,3′-azetidine]-3-carbonitrile]",,,,< 10
"N#Cc1c(N2C[C@H]3CC[C@@H](C2)N3)nc(OC[C@@H]2CCN2CC(F)(F)F)nc1N1CC2(CCc3sc(N)c(C#N)c32)C1 [Compound 92, 2-amino-1′-[5-cyano-6-[(1R,5S)-3,8-diazabicyclo[3.2.1]octan-3-yl]-2-[[(2S)-1-(2,2,2-trifluoroethyl)azetidin-2-yl]methoxy]pyrimidin-4-yl]spiro[5,6-dihydrocyclopenta[b]thiophene-4,3′-azetidine]-3-carbonitrile]",,,,10 to 100
"C=C1CN2CCCC2(COc2nc(N3CCCn4nc(C(=O)N(C)C)c(Cl)c4C3)c(C#N)c(N3CC4(CCc5sc(N)c(C#N)c54)C3)n2)C1 (centres unmarked) [Compound 93, 5-[6-(2-amino-3-cyano-spiro[5,6-dihydrocyclopenta[b]thiophene-4,3′-azetidine]-1′-yl)-5-cyano-2-[(6-methylene-2,3,5,7-tetrahydro-1H-pyrrolizin-8-yl)methoxy]pyrimidin-4-yl]-3-chloro-N,N-dimethyl-4,6,7,8-tetrahydropyrazolo[1,5-a][1,4]diazepine-2-carboxamide]",,,,< 10
"C=C1CN2CCCC2(COc2nc(N3C[C@H]4CC[C@@H](C3)N4)c(C#N)c(N3CC4(CCc5sc(N)c(C#N)c54)C3)n2)C1 (stereo partly drawn) [Compound 94, 2-amino-1′-[5-cyano-2-[(6-methylene-2,3,5,7-tetrahydro-1H-pyrrolizin-8-yl)methoxy]-6-[(1R,5S)-3,8-diazabicyclo[3.2.1]octan-3-yl]pyrimidin-4-yl]spiro[5,6-dihydrocyclopenta[b]thiophene-4,3′-azetidine]-3-carbonitrile]",,,,< 10
"CN(C)CC1(COc2nc(N3CCCn4nc(C(=O)N(C)C)c(Cl)c4C3)c(C#N)c(N3CC4(CCCc5sc(N)c(C#N)c54)C3)n2)CC1(F)F (centres unmarked) [Compound 96, 5-[6-(2-amino-3-cyano-spiro[6,7-dihydro-5H-benzothiophene-4,3′-azetidine]-1′-yl)-5-cyano-2-[[1-[(dimethylamino)methyl]-2,2-difluoro-cyclopropyl]methoxy]pyrimidin-4-yl]-3-chloro-N,N-dimethyl-4,6,7,8-tetrahydropyrazolo[1,5-a][1,4]diazepine-2-carboxamide]",,,,< 10
"Cn1nccc1COc1nc(N2C[C@H]3CC[C@@H](C2)N3)c(C#N)c(N2CC3(CCc4sc(N)c(C#N)c43)C2)n1 [Compound 97, 2-amino-1′-[5-cyano-2-[(2-methylpyrazol-3-yl)methoxy]-6-[(1R,5S)-3,8-diazabicyclo[3.2.1]octan-3-yl]pyrimidin-4-yl]spiro[5,6-dihydrocyclopenta[b]thiophene-4,3′-azetidine]-3-carbonitrile]",,,,< 10
"N#Cc1c(N2C[C@H]3CC[C@@H](C2)N3)nc(OCC2(c3ccn[nH]3)CC2)nc1N1CC2(CCc3sc(N)c(C#N)c32)C1 [Compound 98, 2-amino-1′-[5-cyano-6-[(1R,5S)-3,8-diazabicyclo[3.2.1]octan-3-yl]-2-[[1-(1H-pyrazol-5-yl)cyclopropyl]methoxy]pyrimidin-4-yl]spiro[5,6-dihydrocyclopenta[b]thiophene-4,3′-azetidine]-3-carbonitrile]",,,,< 10
"N#Cc1c(N2C[C@H]3CC[C@@H](C2)N3)nc(OC[C@@]23CCCN2C[C@H](F)C3)nc1N1CC2(C1)c1c(sc(N)c1C#N)CC1CC12 (stereo partly drawn) [Compound 99, 2-amino-1′-[5-cyano-6-[(1R,5S)-3,8-diazabicyclo[3.2.1]octan-3-yl]-2-[[(2R,8S)-2-fluoro-1,2,3,5,6,7-hexahydropyrrolizin-8-yl]methoxy]pyrimidin-4-yl]spiro[4a,5,5a,6-tetrahydrocyclopropa[f]benzothiophene-4,3′-azetidine]-3-carbonitrile]",,,,< 10
"N#Cc1c(N2C[C@H]3CC[C@@H](C2)N3)nc(OCC2(CN3CCOCC3)CC2)nc1N1CC2(C1)SCc1sc(N)c(C#N)c12 [Compound 100, 2-amino-1′-[5-cyano-6-[(1R,5S)-3,8-diazabicyclo[3.2.1]octan-3-yl]-2-[[1-(morpholinomethyl)cyclopropyl]methoxy]pyrimidin-4-yl]spiro[6H-thieno[2,3-c]thiophene-4,3′-azetidine]-3-carbonitrile]",,,,< 10
"N#Cc1c(N2C[C@H]3CC[C@@H](C2)N3)nc(OCC2(CN3CCOCC3)CC2)nc1N1CC2(C1)c1c(sc(N)c1C#N)CC2F (stereo partly drawn) [Compound 101, 2-amino-1′-[5-cyano-6-[(1R,5S)-3,8-diazabicyclo[3.2.1]octan-3-yl]-2-[[1-(morpholinomethyl)cyclopropyl]methoxy]pyrimidin-4-yl]-5-fluoro-spiro[5,6-dihydrocyclopenta[b]thiophene-4,3′-azetidine]-3-carbonitrile]",,,,< 10
Cc1n[nH]nc1COc1nc(N2C[C@H]3CC[C@@H](C2)N3)c(C#N)c(N2CC3(CCc4sc(N)c(C#N)c43)C2)n1 [Compound 108],,,,10 to 100
